Bridge positions count the residues as written; N and C are the ends. Square brackets hold non-standard residues; d marks the D form. Ends that are not written are not given here. Phe(4-F) = N[C@@H](Cc1ccc(F)cc1)C(=O)O; 2Nal = N[C@@H](Cc1ccc2ccccc2c1)C(=O)O; d2Nal = N[C@H](Cc1ccc2ccccc2c1)C(=O)O; NF = naphthofluorescein; Dap = NC[C@H](N)C(=O)O
Tested on: HeLa cells
Assay: Cellular (cytosolic) uptake of NF-labeled peptides by flow cytometry (MFI)
Assay type: cell-based
Settings: HeLa cells, 5 μM NF-labeled peptide, 2 h, DMEM with 10% FBS and 1% ABS; relative to CPP9 (100%)
Procedure: HeLa cells were treated with 5 μM peptide for 2 h, and their cell uptake efficiencies were determined by flow cytometry analysis. The mean fluorescence intensity (MFI) values derived from cytometry analyses reflect the amounts of peptides inside the cytosol and nucleus, whereas any NF-labeled peptide entrapped inside the acidic endosomes are invisible under the experimental conditions (Id.; Qian, Z et al. Chem. Commun. 2015, 51, 2162-2165).
The binding affinity of BH23 (unlabeled) for the Grb2 SH2 domain was then determined by examining its ability to compete with the FAM-labeled ligand for binding to the Grb2 SH2 domain by fluorescence polarization (FP). […] Next, BH23 was labeled with NF at the Asn side chain through a miniPEG-Lys linker and its cytosolic entry efficiency was quantitated by treating HeLa cells with 5 μM of the labeled peptide for 2 h before flow cytometry analysis. […] BH23 was also similarly labeled at the Asn side chain with FAM and its entry into HeLa cells was examined by live-cell confocal microscopy. […] Two control peptides (BH24 and BH25) were also prepared for cellular assays. BH24 and BH25 are structurally similar to BH23, except that BH24 contained a Tyr instead of the pY residue (FIG. 11), whereas in BH25 the two hydrophobic residues critical for cellular uptake (Nal-arg) were replaced with Ala-ala (FIG. 12).
BHT1 and BHT2 were labeled with naphthofluorescein (NF) and their cytosolic uptake into HeLa cells was determined by flow cytometry (Table 10).
Additional cell penetrating compounds were prepared and tested for cytosolic delivery. In these compounds there was no beta-hairpin turn creating moiety.

Row | Substance | Cellular Uptake (MFI^NF, %), cytosolic entry efficiency [%]
1 | cyclo(f-Φ-R-r-R-r-Q)-miniPEG-K(NF) (cyclo([dF][2Nal]R[dR]R[dR]Q); not fully specified (residue 7); printed as cyclo(f-Φ-R-r-R-r-Q)-miniPEG-K(NF)) [CPP9, reference compound] | 100

Same assay, conditions: HeLa cells, 5 μM NF-labeled peptide, 2 h, flow cytometry; relative to CPP1 (100%)

Row | Substance | Cellular Uptake (MFINF, %) [%]
2 | cyclo(A-A-F-Φ-R-p-P-r-R-F-A-A-A-Q)-miniPEG-K(NF) (cyclo(AAF[2Nal]R[dP]P[dR]RFAAAQ); not fully specified (residue 14); printed as cyclo(A-A-F-Φ-R-p-P-r-R-F-A-A-A-Q)-miniPEG-K(NF)) [BH5] | 102 ± 45
3 | cyclo(A-A-F-Φ-F-p-P-R-R-R-A-A-A-Q)-miniPEG-K(NF) (cyclo(AAF[2Nal]F[dP]PRRRAAAQ); not fully specified (residue 14); printed as cyclo(A-A-F-Φ-F-p-P-R-R-R-A-A-A-Q)-miniPEG-K(NF)) [BH3] | 30 ± 6
4 | cyclo(A-A-F-Φ-R-p-P-R-R-F-A-A-A-Q)-miniPEG-K(NF) (cyclo(AAF[2Nal]R[dP]PRRFAAAQ); not fully specified (residue 14); printed as cyclo(A-A-F-Φ-R-p-P-R-R-F-A-A-A-Q)-miniPEG-K(NF)) [BH4] | 73 ± 6
5 | cyclo(A-A-F-Φ-r-p-P-R-R-F-A-A-A-Q)-miniPEG-K(NF) (cyclo(AAF[2Nal][dR][dP]PRRFAAAQ); not fully specified (residue 14); printed as cyclo(A-A-F-Φ-r-p-P-R-R-F-A-A-A-Q)-miniPEG-K(NF)) [BH6] | 431 ± 169
6 | cyclo(R-A-F-Φ-r-p-P-R-R-F-R-A-R-Q)-miniPEG-K(NF) (cyclo(RAF[2Nal][dR][dP]PRRFRARQ); not fully specified (residue 14); printed as cyclo(R-A-F-Φ-r-p-P-R-R-F-R-A-R-Q)-miniPEG-K(NF)) [BH9] | 104 ± 27

Same assay, conditions: HeLa cells, 5 μM peptide, 2 h, DMEM with 10% FBS and 1% ABS; relative to CPP9 (100%)

Row | Substance | Cellular Uptake (MFI^NF, %) of β-hairpin transporters [%]
7 | cyclo(f-Φ-R-r-R-r-Q)-miniPEG-K(NF) (cyclo([dF][2Nal]R[dR]R[dR]Q); not fully specified (residue 7); printed as cyclo(f-Φ-R-r-R-r-Q)-miniPEG-K(NF)) [CPP9, reference compound] | 100

Same assay, conditions: HeLa cells, NF-labeled peptide, flow cytometry; relative to CPP1 (100%)

Row | Substance | Cellular Uptake (MFI^NF, %) of Keap1-Nrf2 inhibitors [%]
8 | cyclo[F-F-Φ-r-p-P-R-R-F-Q-K(NF)-D-P-E-T-G-E] (cyclo(FF[2Nal][dR][dP]PRRFQK(NF)DPETGE)) [BH20] | 122.4
9 | cyclo[F-Φ-r-p-P-R-R-F-K(NF)-D-P-E-T-G-E] (cyclo(F[2Nal][dR][dP]PRRFK(NF)DPETGE)) [BH21] | 44.6

Same assay, conditions: HeLa cells, flow cytometry

Row | Substance | Cellular entry / delivery efficiency (in words)
10 | cyclo[F-F-Φ-r-p-P-R-R-F-Q-K(NF)-D-P-E-T-G-E] (cyclo(FF[2Nal][dR][dP]PRRFQK(NF)DPETGE)) [BH20] | less efficiently than BH6 and BH12
11 | cyclo(A-A-F-Φ-R-p-P-R-R-F-A-A-A-Q)-miniPEG-K(NF) (cyclo(AAF[2Nal]R[dP]PRRFAAAQ); not fully specified (residue 14); printed as cyclo(A-A-F-Φ-R-p-P-R-R-F-A-A-A-Q)-miniPEG-K(NF)) [BH4] | taken up most efficiently
12 | cyclo[F-Φ-r-p-P-R-R-F-K(NF)-D-P-E-T-G-E] (cyclo(F[2Nal][dR][dP]PRRFK(NF)DPETGE)) [BH21] | less efficiently than BH6 and BH12

Same assay, conditions: HeLa cells; D-amino acid diastereomers of BH4

Row | Substance | Improvement of cytosolic entry efficiency relative to BH4
13 | cyclo(A-A-F-Φ-R-p-P-r-R-F-A-A-A-Q)-miniPEG-K(NF) (cyclo(AAF[2Nal]R[dP]P[dR]RFAAAQ); not fully specified (residue 14); printed as cyclo(A-A-F-Φ-R-p-P-r-R-F-A-A-A-Q)-miniPEG-K(NF)) [BH5] | only minor effect
14 | cyclo(A-A-F-Φ-r-p-P-R-R-F-A-A-A-Q)-miniPEG-K(NF) (cyclo(AAF[2Nal][dR][dP]PRRFAAAQ); not fully specified (residue 14); printed as cyclo(A-A-F-Φ-r-p-P-R-R-F-A-A-A-Q)-miniPEG-K(NF)) [BH6] | 6 fold

Same assay, conditions: relative to CPP 1 (100%); mean ± S.D. of three independent experiments

Row | Substance | Cellular Uptake (MFI^NF, %), cytosolic delivery efficiency of CPPs without beta-hairpin moiety [%]
15 | 249 (FFFRRRQ; cyclic) [Peptide 249] | 231 ± 43
16 | 266 (FFRRRRFQ; cyclic) [Peptide 266] | 162 ± 16
17 | 267 (FRRFFRRQ; cyclic) [Peptide 267] | 127 ± 22
18 | 283 (CWWRRRRC; disulfide 1-8) [Peptide 283] | 51
19 | 282 (Ac-[Dap][dF]FR[dR]R[dR]D; lactam 1-8 (inferred); not fully specified; printed as Ac-(Dap-fFRrRrD)) [Peptide 282] | 126 ± 33
20 | 265 (FFRRFRRQ; cyclic) [Peptide 265] | 46 ± 2
21 | 131 (cyclo(F[2Nal]RRRRQ); SMILES N=C(N)NCCC[C@@H]1NC(=O)[C@H](CCCNC(=N)N)NC(=O)[C@H](CCCNC(=N)N)NC(=O)[C@H](Cc2ccc3ccccc3c2)NC(=O)[C@H](Cc2ccccc2)NC(=O)[C@H](CCC(N)=O)NC(=O)[C@H](CCCNC(=N)N)NC1=O) [Peptide 131] | 100 ± 6
22 | 273 (cyclo([dF]F[dF][dR]R[dR]Q); SMILES N=C(N)NCCC[C@@H]1NC(=O)[C@@H](CCCNC(=N)N)NC(=O)[C@@H](Cc2ccccc2)NC(=O)[C@H](Cc2ccccc2)NC(=O)[C@@H](Cc2ccccc2)NC(=O)[C@H](CCC(N)=O)NC(=O)[C@@H](CCCNC(=N)N)NC1=O) [Peptide 273] | 463 ± 94
23 | 236 (cyclo(FFR[dR]RQ); SMILES N=C(N)NCCC[C@@H]1NC(=O)[C@H](Cc2ccccc2)NC(=O)[C@H](Cc2ccccc2)NC(=O)[C@H](CCC(N)=O)NC(=O)[C@H](CCCNC(=N)N)NC(=O)[C@@H](CCCNC(=N)N)NC1=O) [Peptide 236] | 40
24 | 272 (cyclo(F[dF]FR[dR]RQ); SMILES N=C(N)NCCC[C@@H]1NC(=O)[C@H](Cc2ccccc2)NC(=O)[C@@H](Cc2ccccc2)NC(=O)[C@H](Cc2ccccc2)NC(=O)[C@H](CCC(N)=O)NC(=O)[C@H](CCCNC(=N)N)NC(=O)[C@@H](CCCNC(=N)N)NC1=O) [Peptide 272] | 230 ± 18
25 | 259 (cyclo(G[2Nal]RRRRQ); SMILES N=C(N)NCCC[C@@H]1NC(=O)[C@H](Cc2ccc3ccccc3c2)NC(=O)CNC(=O)[C@H](CCC(N)=O)NC(=O)[C@H](CCCNC(=N)N)NC(=O)[C@H](CCCNC(=N)N)NC(=O)[C@H](CCCNC(=N)N)NC1=O) [Peptide 259] | 55 ± 5
26 | 268 (FFFRRRRRQ; cyclic) [Peptide 268] | 145 ± 27
27 | 245 (FRRRFRQ; cyclic) [Peptide 245] | 20 ± 3
28 | 278 (cyclo([d2Nal]F[dF][dR]R[dR]Q); also: further D-residues, places not given here) [Peptide 278] | 50 ± 9
29 | 271 (cyclo([Phe(4-F)][Phe(4-F)]RRRRQ); SMILES N=C(N)NCCC[C@@H]1NC(=O)[C@H](CCCNC(=N)N)NC(=O)[C@H](CCCNC(=N)N)NC(=O)[C@H](Cc2ccc(F)cc2)NC(=O)[C@H](Cc2ccc(F)cc2)NC(=O)[C@H](CCC(N)=O)NC(=O)[C@H](CCCNC(=N)N)NC1=O) [Peptide 271] | 165 ± 22
30 | 263 (RFFFRRRQ; cyclic) [Peptide 263] | 167 ± 10

Row | Substance | Cellular Uptake (MFI^NF, %), cytosolic delivery efficiency of CPPs without beta-hairpin moiety [%]
31 | 239 (FRRRFQ; cyclic) [Peptide 239] | 25 ± 4
32 | 256 (FRRFRFQ; cyclic) [Peptide 256] | 101 ± 16
33 | 277 (cyclo([dF][2Nal][dF][dR]R[dR]Q)) [Peptide 277] | 267 ± 62
34 | 262 (RRFFRRRQ; cyclic) [Peptide 262] | 115 ± 20
35 | 261 (RFFRRRRQ; cyclic) [Peptide 261] | 104 ± 5
36 | 253 (FFRFRRQ; cyclic) [Peptide 253] | 106 ± 22
37 | 264 (RRFFFRRQ; cyclic) [Peptide 264] | 112 ± 20
38 | 275 (cyclo(F[dF]F[dR]R[dR]Q); SMILES N=C(N)NCCC[C@@H]1NC(=O)[C@@H](CCCNC(=N)N)NC(=O)[C@H](Cc2ccccc2)NC(=O)[C@@H](Cc2ccccc2)NC(=O)[C@H](Cc2ccccc2)NC(=O)[C@H](CCC(N)=O)NC(=O)[C@@H](CCCNC(=N)N)NC1=O) [Peptide 275] | 236 ± 26
39 | 248 (FRFRRRQ; cyclic) [Peptide 248] | 132 ± 57
40 | 270 (cyclo(F[2Nal]R[dR]R[dR]Q)) [Peptide 270] | 212 ± 42
41 | 240 (cyclo(G[2Nal]RRRQ); SMILES N=C(N)NCCC[C@@H]1NC(=O)[C@H](Cc2ccc3ccccc3c2)NC(=O)CNC(=O)[C@H](CCC(N)=O)NC(=O)[C@H](CCCNC(=N)N)NC(=O)[C@H](CCCNC(=N)N)NC1=O) [Peptide 240] | 49 ± 5
42 | 234 (FFRRRQ; cyclic) [Peptide 234] | 65
43 | 260 (FFFRRRRQ; cyclic) [Peptide 260] | 122 ± 20
44 | 243 (FFRRRRQ; cyclic) [Peptide 243] | 89 ± 27
45 | 242 (FFFRRQ; cyclic) [Peptide 242] | 125 ± 25
46 | 280 (cyclo([dF][2Nal][dR]R[dR]Q)) [Peptide 280] | 214

From US11352394B2, “Cyclic cell penetrating peptides comprising beta-hairpin motifs and methods of making and using thereof” (Ohio State Innovation Foundation, priority 2016, dated 2022)
